{
  "source": "patent US10358469B2",
  "about": "“Methods and pharmaceutical compositions for the treatment of cancer” (INSERM (INSTITUT NATIONAL DE LA SANTÉ ET DE LA RECHERCHE …, priority 2014, dated 2019)",
  "assay_type_in_all_cases": "cell-based",
  "key": {"[1]": {"system": "Karpas 1106, SU-DHL-5, SeAx and HUT-78 cells", "test": "Cell viability (MTS) of hematologic cancer cell lines under low serum", "conditions": "increasing concentrations, 24 hours, low serum conditions (0.5-5%), FIG. 1A", "protocol": "(A) Karpas 1106, SU-DHL-5, SeAx and HUT-78 cells were plated at a densities of 6×10^3 in 96 well plates (100 μL total volume per well) and treated for 24 hours in a 37° C. incubator (5% CO2) with increasing concentrations of the Antp-AAC-11-LZ (363-399). 20 μL MTS reagent was then added to each well and plates were incubated for an additional 4 hours. Absorbance was measured at 490 nm using a 96-well plate reader. The extent to which the Antp-AAC-11-LZ (363-399) peptide inhibited cell proliferation was calculated as a percentage of the absorbance in each well containing the Antp-AAC-11-LZ (363-399) peptide relative to wells containing no peptide (negative control). […]\nViability of cells cultured in the 96-well culture plates was assessed by measuring mitochondrial dehydrogenase activity, using the colorimetric CellTiter 96® AQueous One Solution Cell Proliferation Assay (Promega), according to the manufacturer′ instructions. […] The color can then be quantified using a simple colorimetric assay. The results are read on a multiwall scanning spectrophotometer (ELISA reader).\nThe inventors evaluated the capacity of the Antp-AAC-11-LZ (363-399) peptide to induce cell death a panel of hematologic and solid tumor cell lines, both P53 positive and P53 negative, derived from different tissues of origin, under low serum conditions (0.5-5%). […]"}, "[2]": {"system": "D3H2LN cells", "test": "Proliferation of D3H2LN cells (not showed)"}, "[3]": {"system": "HaCat cells", "test": "Propidium iodide (PI) uptake, flow cytometry, HaCat cells", "conditions": "10 μM, absence of 10% FBS, FIG. 4A", "protocol": "FIG. 4: Antp-AAC-11-LZ (363-399) peptide induced necrotic cell death under low serum conditions. (A) SeAx or HaCat cells cultured in the absence of 10% FBS were left untreated or treated with 4 μM or 10 μM, respectively, of the Antp-AAC-11-LZ (363-399) peptide for the indicated durations. Cells were then analyzed by flow cytometry for PI staining. The results represent the mean number of PI-positive cells±S.D. from at least three independent experiments. (B) A549 and HaCat cells were plated at a densities of 4.5×10^3 in 96 well plates (100 μL total volume per well) and allowed to attach overnight in a 37° C. incubator (5% CO2). Media was removed from cells and replaced with media containing 10 μM Antp-AAC-11-LZ (363-399) peptide (100 μL total volume per well) peptide and the plates were incubated for the indicated durations. Lactate dehydrogenase (LDH) activity released in the culture medium was then assessed and data expressed as a percentage of the maximal level (Max) of LDH activity determined after total cell lysis±S.D. from at least three independent experiments.\nCell death was evaluated upon staining with propidium iodide and flow cytometry analysis.\nWe therefore evaluated necrotic cell death of SeAx cells treated with the Antp-AAC-11-LZ (363-399) peptide by PI uptake assay following different time exposures. […]"}},
  "data": [
    {"substance": "Ac-RQIKIWFKKQNRRMKWKKAKLNAEKLKDFKIRLQYFARGLQVYIRQLRLALQGKT-NH2 [Antp-AAC-11-LZ (363-399)]", "values": [
      {"measurement": "loss of cellular viability", "setting": "[1]", "value": "drastic loss of cellular viability"},
      {"measurement": "proliferation at the concentrations used for migration", "setting": "[2]", "value": "neither the Antp-AAC-11-LZ (363-399) or TAT-AAC-11-LZ (363-399) peptides impaired proliferation"},
      {"measurement": "loss of cell membrane integrity (PI uptake) in nonmalignant cells", "setting": "[3]", "value": "much decreased loss of cell membrane integrity"}
    ]}
  ]
}
